For 18 molecules, IC50 and EC50 results are on record in patent US20230340011A1 (Asteroid Therapeutics, priority 2022, published 2023).

One test has as its target SREBP-2 (Homo sapiens (Human), UniProt Q12772). The experiment in a line: In vitro assay SREBP-2: PathHunter U2OS SREBP-2 Nuclear Translocation Cell Line, U18666A-stimulated. It counts as cell-based. Conditions: PathHunter U2OS SREBP-2 nuclear translocation cells, U18666A 10 μM, overnight (16 hours).
The target in another test is LXRβ (Homo sapiens (Human), UniProt P55055). The experiment in a line: In vitro assay LXRβ: PathHunter NHR CHO cells, LXRβ / Steroid Receptor Co-activator Peptide enzyme fragment complementation. The format is cell-based. The settings on record: PathHunter NHR CHO cells, full-length human LXRβ and SRCP, chemiluminescent signal; read-out: LXRβ PPI. The procedure, abridged: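 Co-activator recruitment measured by chemiluminescence after signal generation. The CHO line carries full-length human LXRβ tagged with ProLink and an SRCP–enzyme acceptor fusion in the nucleus; cells sat overnight at 37° C before testing, in charcoal-dextran filtered serum medium with 1% final vehicle.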
Sequence of LXRβ (P55055 whole entry, the tested form may be a part): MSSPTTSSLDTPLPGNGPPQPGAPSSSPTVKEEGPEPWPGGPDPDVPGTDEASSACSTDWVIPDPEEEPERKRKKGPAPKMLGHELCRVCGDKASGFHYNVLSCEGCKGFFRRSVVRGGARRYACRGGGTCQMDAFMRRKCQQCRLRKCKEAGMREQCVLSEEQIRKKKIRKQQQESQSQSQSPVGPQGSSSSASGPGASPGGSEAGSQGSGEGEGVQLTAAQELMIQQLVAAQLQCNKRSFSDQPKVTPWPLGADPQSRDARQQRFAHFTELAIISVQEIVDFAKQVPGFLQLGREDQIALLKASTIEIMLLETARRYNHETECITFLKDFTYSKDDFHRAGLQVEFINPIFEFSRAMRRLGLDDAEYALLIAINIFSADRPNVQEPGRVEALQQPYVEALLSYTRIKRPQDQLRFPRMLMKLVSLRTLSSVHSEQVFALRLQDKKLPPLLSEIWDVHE

Each structure is given as a SMILES string. Where only a bound is given, the exact number is not on record here.

As a reminder, the IC50 is the concentration that inhibits the measured activity by half. Lower therefore signals greater potency. At SREBP-2, `COC(=O)N1CCN(C(=S)CC[C@@H](C)[C@H]2CC[C@H]3[C@@H]4CC=C5C[C@@H](O)CC[C@]5(C)[C@H]4CC[C@]23C)CC1` [Example 550, methyl4-[(4R)-4-[(1R,3aS,3bS,7S,9aR,9bS,11aR)-7-hydroxy-9a,11a-dimethyl-1H,2H,3H,3aH,3bH,4H,6H,7H,8H,9H,9aH,9bH,10H,11H,11aH-cyclopenta[a]phenanthren-1-yl]pentanethioyl]piperazine-1-carboxylate] showed an IC50 below 250 nM. Besides, on LXRβ, the EC50 is above 10000 nM.
The like results for `COc1nccc(N2CCN(C(=O)CC[C@@H](C)[C@H]3CC[C@H]4[C@@H]5CC=C6C[C@@H](O)CC[C@]6(C)[C@H]5CC[C@]34C)CC2)n1` [Example 202, (R)-4-((3S,8S,9S,10R,13R,14S,17R)-3-hydroxy-10,13-dimethyl-2,3,4,7,8,9,10,11,12,13,14,15,16,17-tetradecahydro-1H-cyclopenta[a]phenanthren-17-yl)-1-(4-(2-methoxypyrimidin-4-yl)piperazin-1-yl) pentan-1-one] were, in that order, below 250 nM and above 10000 nM.
`CCC(=O)N1CCN(C(=O)CC[C@@H](C)[C@H]2CC[C@H]3[C@@H]4CC=C5C[C@@H](O)CC[C@]5(C)[C@H]4CC[C@]23C)CC1` [Example 385, (R)-4-((3S,8S,9S,10R,13R,14S,17R)-3-hydroxy-10,13-dimethyl-2,3,4,7,8,9,10,11,12,13,14,15,16,17-tetradecahydro-1H-cyclopenta[a]phenanthren-17-yl)-1-(4-propionylpiperazin-1-yl) pentan-1-one] yielded an IC50 at SREBP-2 below 250 nM. In addition, the EC50 at LXRβ was above 10000 nM.
The like results for `C[C@H](CCC(=O)N1CCN(c2cccnn2)CC1)[C@H]1CC[C@H]2[C@@H]3CC=C4C[C@@H](O)CC[C@]4(C)[C@H]3CC[C@]12C` [Example 303, (4R)-4-[(1R,3aS,3bS,7S,9aR,9bS,11aR)-7-hydroxy-9a,11a-dimethyl-1H,2H,3H,3aH,3bH,4H,6H,7H,8H,9H,9aH,9bH,10H,11H,11aH-cyclopenta[a]phenanthren-1-yl]-1-[4-(pyridazin-3-yl)piperazin-1-yl]pentan-1-one] were, in that order, below 250 nM and above 10000 nM.
Taken in the same sequence, the figures for `C[C@H](COc1cccnc1)[C@H]1CC[C@H]2[C@@H]3CC=C4C[C@@H](O)CC[C@]4(C)[C@H]3CC[C@]12C` [Example 180, (3S,8S,9S,10R,13S,14S,17R)-10,13-dimethyl-17-((S)-1-(pyridin-3-yloxy)propan-2-yl)-2,3,4,7,8,9,10,11,12,13,14,15,16,17-tetradecahydro-1H-cyclopenta[a]phenanthren-3-ol] were below 250 nM and above 10000 nM.
The like results for `COc1ncccc1N1CCN(C(=O)CC[C@@H](C)[C@H]2CC[C@H]3[C@@H]4CC=C5C[C@@H](O)CC[C@]5(C)[C@H]4CC[C@]23C)CC1` [Example 612, (R)-4-((3S,8S,9S,10R,13R,14S,17R)-3-hydroxy-10,13-dimethyl-2,3,4,7,8,9,10,11,12,13,14,15,16,17-tetradecahydro-1H-cyclopenta[a]phenanthren-17-yl)-1-(4-(2-methoxypyridin-3-yl)piperazin-1-yl)pentan-1-one] were, in that order, below 250 nM and above 10000 nM.
Regarding `C[C@H](CCC(=O)N(C)C)[C@H]1CC[C@H]2[C@@H]3CC=C4C[C@@](C)(O)CC[C@]4(C)[C@H]3CC[C@]12C` [Example 120, (R)-4-((3S,8S,9S,10R,13R,14S,17R)-3-hydroxy-3,10,13-trimethyl-2,3,4,7,8,9,10,11,12,13,14,15,16,17-tetradecahydro-1H-cyclopenta [a]phenanthren-17-yl) -N,N-dimethylpentanamide], at SREBP-2, the IC50 lay in the range of 1000 to 10000 nM. The EC50 at LXRβ was above 10000 nM.
At SREBP-2, `C[C@H](CCC(=O)N1CCC2(CC1)COC2)[C@H]1CC[C@H]2[C@@H]3CC=C4C[C@@H](O)CC[C@]4(C)[C@H]3CC[C@]12C` [Example 80, (R)-4-((3S,8S,9S,10R,13R,14S,17R)-3-hydroxy-10,13-dimethyl-2,3,4,7,8,9,10,11,12,13,14,15,16,17-tetradecahydro-1H-cyclopenta[a]phenanthren-17-yl)-1-(2-oxa-7-azaspiro[3.5]nonan-7-yl)pentan-1-one] had an IC50 below 250 nM. Moreover, the EC50 at LXRβ lay in the range of 1000 to 10000 nM.
The like results for `CCc1cccc(CC[C@@H](C)[C@H]2CC[C@H]3[C@@H]4CC=C5C[C@@H](O)CC[C@]5(C)[C@H]4CC[C@]23C)n1` [Example 167, (3S,8S,9S,10R,13R,14S,17R)-17-((R)-4-(6-ethylpyridin-2-yl)butan-2-yl)-10,13-dimethyl-2,3,4,7,8,9,10,11,12,13,14,15,16,17-tetradecahydro-1H-cyclopenta[a]phenanthren-3-ol] were, in that order, 250 to 1000 nM and above 10000 nM.
The like results for `C[C@H](CCC(=O)N1CC=C(C2CC2)CC1)[C@H]1CC[C@H]2[C@@H]3CC=C4C[C@@H](O)CC[C@]4(C)[C@H]3CC[C@]12C` [Example 193A, (R)-1-(4-cyclopropyl-3,6-dihydropyridin-1(2H)-yl)-4-((3S,8S,9S,10R,13R,14S,17R)-3-hydroxy-10,13-dimethyl-2,3,4,7,8,9,10,11,12,13,14,15,16,17-tetradecahydro-1H-cyclopenta[a]phenanthren-17-yl)pentan-1-one] were, in that order, below 250 nM and 250 to 1000 nM.
Taken in the same sequence, the figures for `C[C@H](CCC(=O)N1CCC(S(=O)(=O)N(C)C)CC1)[C@H]1CC[C@H]2[C@@H]3CC=C4C[C@@H](O)CC[C@]4(C)[C@H]3CC[C@]12C` [Example 290, 1-((R)-4-((3S,8S,9S,10R,13R,14S,17R)-3-hydroxy-10,13-dimethyl-2,3,4,7,8,9,10,11,12,13,14,15,16,17-tetradecahydro-1H-cyclopenta[a]phenanthren-17-yl)pentanoyl)-N,N-dimethylpiperidine-4-sulfonamide] were below 250 nM and above 10000 nM.
Molecule `COC(=O)N1CCC(C(=O)NC[C@@H](C)[C@H]2CC[C@H]3[C@@H]4CC=C5C[C@@H](O)CC[C@]5(C)[C@H]4CC[C@]23C)CC1` [Example 591, Methyl 4-{[(2S)-2-[(1R,3aS,3bS,7S,9aR,9bS,11aS)-7-hydroxy-9a,11a-dimethyl-1H,2H,3H,3aH,3bH,4H,6H,7H,8H,9H,9aH,9bH,10H,11H,11aH-cyclopenta[a]phenanthren-1-yl]propyl]carbamoyl}piperidine-1-carboxylate] gave an IC50 on SREBP-2 below 250 nM. Moreover, on LXRβ, the EC50 is above 10000 nM.
The like results for `CCCN(CCC)C(=O)C(=O)O[C@@H](C)[C@H]1CC[C@H]2[C@@H]3CC=C4C[C@@H](O)CC[C@]4(C)[C@H]3CC[C@]12C` [Example 196, (S)-1-((3S,8S,9S,10R,13S,14S,17S)-3-hydroxy-10,13-dimethyl-2,3,4,7,8,9,10,11,12,13,14,15,16,17-tetradecahydro-1H-cyclopenta[a]phenanthren-17-yl)ethyl 2-(dipropylamino)-2-oxoacetate] were, in that order, below 250 nM and 1000 to 10000 nM.
Taken in the same sequence, the figures for `C[C@H](CCc1ncccc1CO)[C@H]1CC[C@H]2[C@@H]3CC=C4C[C@@H](O)CC[C@]4(C)[C@H]3CC[C@]12C` [Example 454, (3S,8S,9S,10R,13R,14S,17R)-17-((R)-4-(3-(hydroxymethyl)pyridin-2-yl)butan-2-yl)-10,13-dimethyl-2,3,4,7,8,9,10,11,12,13,14,15,16,17-tetradecahydro-1H-cyclopenta[a]phenanthren-3-ol] were below 250 nM and below 250 nM.
Take `CC(C)ON(C)C(=O)CC[C@@H](C)[C@H]1CC[C@H]2[C@@H]3CC=C4C[C@@H](O)CC[C@]4(C)[C@H]3CC[C@]12C` [Example 14, (R)-4-((3S,8S,9S,10R,13R,14S,17R)-3-hydroxy-10,13-dimethyl-2,3,4,7,8,9,10,11,12,13,14,15,16,17-tetradecahydro-1H-cyclopenta[a]phenanthren-17-yl)-N-isopropoxy-N-methylpentanamide]: the IC50 at SREBP-2 lay within 250 to 1000 nM. In addition, on LXRβ, the EC50 lay in the range of 250 to 1000 nM.
Molecule `Cc1ncccc1O[C@@H](C)[C@H]1CC[C@H]2[C@@H]3CC=C4C[C@@H](O)CC[C@]4(C)[C@H]3CC[C@]12C` [Example 274, (1S,3aS,3bS,7S,9aR,9bS,11aS)-9a,11a-dimethyl-1-[(1S)-1-[(2-methylpyridin-3-yl)oxy]ethyl]-1H,2H,3H,3aH,3bH,4H,6H,7H,8H,9H,9aH,9bH,10H,11H,11aH-cyclopenta[a]phenanthren-7-ol] gave an IC50 against SREBP-2 of 250 to 1000 nM. In addition, at LXRβ, the EC50 was above 10000 nM.
Taken in the same sequence, the figures for `C[C@H](CCC(=O)N1CC(C)(CO)C1)[C@H]1CC[C@H]2[C@@H]3CC=C4C[C@@H](O)CC[C@]4(C)[C@H]3CC[C@]12C` [Example 555, (R)-4-((3S,8S,9S,10R,13R,14S,17R)-3-hydroxy-10,13-dimethyl-2,3,4,7,8,9,10,11,12,13,14,15,16,17-tetradecahydro-1H-cyclopenta[a]phenanthren-17-yl)-1-(3-(hydroxymethyl)-3-methylazetidin-1-yl)pentan-1-one] were below 250 nM and above 10000 nM.
As for `C[C@H](COc1ccncc1)[C@H]1CC[C@H]2[C@@H]3CC=C4C[C@@H](O)CC[C@]4(C)[C@H]3CC[C@]12C` [Example 181, (8S,9S,10R,13S,14S,17R)-10,13-dimethyl-17-((S)-1-(pyridin-4-yloxy)propan-2-yl)-2,3,4,7,8,9,10,11,12,13,14,15,16,17-tetradecahydro-1H-cyclopenta[a]phenanthren-3-ol], on SREBP-2, the IC50 lay within 250 to 1000 nM. The EC50 on LXRβ is above 10000 nM.
